From PubChem BioAssay (NCI)
Where “and” joins values, the source holds several entries; their conditions need not be identical. Identical values can stand only once.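 Step 1: Grow cells in 96-well plates. Step 2: Expose to compound for 48 hours at 5 concentrations. Step 3: Interpolate endpoints linearly; if unreached, use highest concentration. GI50 marks 50% less growth. Definition used: TGI = concentration required for complete inhibition of growth.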

Columns and labels:
Test in all cases: NCI tumour cell line growth inhibition, 48 h
HL-60(TB) leukemia = tested on: HL-60(TB) leukemia
HT29 colon = tested on: HT29 colon
IGROV1 ovarian = tested on: IGROV1 ovarian
NCI-H23 lung = tested on: NCI-H23 lung
NCI-H460 lung = tested on: NCI-H460 lung
OVCAR-4 ovarian = tested on: OVCAR-4 ovarian
RPMI-8226 leukemia = tested on: RPMI-8226 leukemia
RXF 393 renal = tested on: RXF 393 renal
MALME-3M melanoma = tested on: MALME-3M melanoma
MDA-MB-231 breast = tested on: MDA-MB-231 breast

| SMILES | TGI (HL-60(TB) leukemia) | TGI (HT29 colon) | TGI (IGROV1 ovarian) | TGI (NCI-H23 lung) | TGI (NCI-H460 lung) | TGI (OVCAR-4 ovarian) | TGI (RPMI-8226 leukemia) | TGI (RXF 393 renal) | TGI (MALME-3M melanoma) | TGI (MDA-MB-231 breast) | GI50 (NCI-H460 lung) | GI50 (HL-60(TB) leukemia) | GI50 (HT29 colon) | GI50 (IGROV1 ovarian) | GI50 (MALME-3M melanoma) | GI50 (MDA-MB-231 breast) | GI50 (NCI-H23 lung) | GI50 (OVCAR-4 ovarian) | GI50 (RXF 393 renal) | GI50 (RPMI-8226 leukemia) |
| --- | --- | --- | --- | --- | --- | --- | --- | --- | --- | --- | --- | --- | --- | --- | --- | --- | --- | --- | --- | --- |
| C=C(C[N+](C)(C)C)N/N=C/c1oc(-c2ccc(OC)c(OC)c2)c(-c2ccc(OC)c(OC)c2)c1[N+](=O)[O-] | 33.9 µM | 32.1 µM | 34.3 µM | 44.7 µM | 40.2 µM | 38 µM | 41.4 µM | 30.1 µM |  |  |  |  |  |  |  |  |  |  |  |  |
| N=C(N)SCC(=O)O |  | > 100 µM | > 100 µM | > 100 µM | > 100 µM | > 100 µM | > 100 µM | > 100 µM | > 100 µM | > 100 µM |  |  |  |  |  |  |  |  |  |  |
| BrC(Br)([P+](c1ccccc1)(c1ccccc1)c1ccccc1)[P+](c1ccccc1)(c1ccccc1)c1ccccc1 | 54.3 µM | 31.9 µM | 43.2 µM | 34 µM | > 100 µM | 43.3 µM | 34.4 µM | 23.6 µM | 26.2 µM |  |  |  |  |  |  |  |  |  |  |  |
| COC(=O)C1=C(C(=O)OC)N(C(C)C)[C@H]2C(C(=O)OC)=C(C(=O)OC)N(C(C)C)[C@@H]12 | > 100 µM | > 100 µM | > 100 µM | > 100 µM | > 100 µM | > 100 µM | > 100 µM | > 100 µM | > 100 µM |  |  |  |  |  |  |  |  |  |  |  |
| O=c1ncccn1C1OC(CO)C(O)C1F (configuration not stated) | > 100 µM | > 100 µM | > 100 µM | > 100 µM | > 100 µM | > 100 µM | > 100 µM | > 100 µM | > 100 µM |  | > 100 µM |  |  |  |  |  |  |  |  |  |
| COc1cc2c3c(c1OC)/C(=N/OS(=O)(=O)c1ccc(C)cc1)CC3N(S(=O)(=O)c1ccc(C)cc1)CC2 (configuration not stated) | > 100 µM | > 100 µM | > 100 µM | > 100 µM | > 100 µM | > 100 µM | > 100 µM | > 100 µM | > 100 µM |  |  |  |  |  |  |  |  |  |  |  |
| C#CCn1cc(C=C2C(=O)NC(=S)NC2=O)c2cc(Cl)ccc21 | 6.45 µM | 4.68 µM | 5.1 µM | 5.26 µM | 5.12 µM | 7.01 µM |  | 3.65 µM | 4.95 µM | 3.62 µM | 2.29 µM | 2.24 µM | 2.21 µM | 2.13 µM | 1.98 µM | 1.81 µM | 2.18 µM | 2.28 µM | 1.84 µM |  |
| O=c1c2ccccc2c(=O)c2c1sc1c(=O)c3ccc(O)cc3c(=O)c12 | 9.77 µM | 6.01 µM | 6.84 µM | 0.505 µM |  | 2.1 µM | 5.25 µM | 4.3 µM | 0.318 µM | 8.19 µM |  | 2.38 µM | 2.39 µM | 2.1 µM | 0.152 µM | 1.72 µM | 0.181 µM | 0.88 µM | 1.63 µM | 1.42 µM |
| C1=CC=C2NCCSCCNC3=CC=CC=CC3=NCCSCCN=C2C=C1 | > 100 µM | > 100 µM | > 100 µM | > 100 µM | > 100 µM | > 100 µM | > 100 µM |  | > 100 µM |  |  |  |  |  |  |  |  |  |  |  |
| C/C(=N\O)[C@H]1CC[C@@]2(C)[C@@H]3CC[C@H]4C(C)(C)/C(=N/O)CC[C@@]45CC35CC[C@]12C (some centres not stated) | > 16.7 µM | > 16.7 µM | > 16.7 µM | > 16.7 µM | > 16.7 µM |  | 6.17 µM | 9.67 µM |  | > 16.7 µM | 5.05 µM | 1.62 µM | 5.56 µM | 5.28 µM |  | 7.46 µM | 4.96 µM |  | 4.02 µM | 0.696 µM |
| Nn1nnc2ccccc21 | > 100 µM | > 100 µM | > 100 µM | > 100 µM | > 100 µM | > 100 µM | > 100 µM |  | > 100 µM | > 100 µM |  |  |  |  |  |  |  |  |  |  |
| CCOC(=O)c1cc(C(=O)O)c(=O)n2c1[nH]c1ccccc12 | > 100 µM | > 100 µM | > 100 µM | > 100 µM | > 100 µM | > 100 µM | > 100 µM | > 100 µM | > 100 µM |  |  |  |  |  |  |  |  |  |  |  |
| CCCC/C=C1\CCC(CN2CCCC2)C1=O (configuration not stated) | 31.4 µM | 31.5 µM | 34.2 µM | 32.1 µM | 38.2 µM |  |  |  | 33.1 µM |  |  |  |  |  |  |  |  |  |  |  |
| O=C1Nc2ccc(Br)cc2C1=Nc1ccc(Cl)cc1 | 39 µM | 38.5 µM |  | > 100 µM | > 100 µM |  | 26.5 µM | 40.1 µM | 48.5 µM | 45.9 µM |  |  |  |  |  |  |  |  |  |  |
| Cc1ccc(N2C(=O)/C(=C3\Sc4c(nc(C)n(C)c4=O)N3c3ccccc3)SC2=S)cc1 | > 100 µM | > 100 µM | > 100 µM | > 100 µM | 44 µM | > 100 µM | > 100 µM | 53.9 µM |  |  |  |  |  |  |  |  |  |  |  |  |
| Cc1nnc(N=Nc2c(O)[nH]c3ccccc23)[nH]c1=O | > 100 µM | > 100 µM | > 100 µM |  | > 100 µM | > 100 µM | > 100 µM |  | > 100 µM | > 100 µM |  |  |  |  |  |  |  |  |  |  |
| CCC1(Cl)C(=O)NC(=O)N(C2CC(O)C(CO)O2)C1N=[N+]=[N-] (configuration not stated) | > 100 µM | > 100 µM | > 100 µM | > 100 µM | > 100 µM | > 100 µM | > 100 µM | > 100 µM | > 100 µM |  |  |  |  |  |  |  |  |  |  |  |
| CNc1ccc(N=Nc2cccc3ncccc23)cc1 | > 100 µM | > 100 µM | > 100 µM | > 100 µM |  |  | > 65.6 µM | > 100 µM | > 100 µM | > 100 µM |  | 4.88 µM | 37.5 µM |  | > 58.4 µM | 7.47 µM | 17.1 µM |  | 28.7 µM | 7.43 µM |
| COc1cc2c(c(OC)c1OC)-c1ccc(SC)c(=O)cc1[C@@H](NC(=O)c1ccc(F)cc1)CC2 | 12.7 µM | 0.0891 µM and < 0.01 µM | > 100 µM | < 0.01 µM |  | 91.1 µM |  |  | 91.1 µM |  |  |  | < 0.01 µM | < 0.01 µM | < 0.01 µM |  | < 0.01 µM |  |  |  |
| C=C1c2ccccc2N(S(=O)(=O)c2ccc(C)cc2)C12CCCCC2 | > 100 µM | > 100 µM | > 100 µM | > 100 µM | > 100 µM | > 100 µM | > 100 µM | > 100 µM | > 100 µM |  |  |  |  |  |  |  |  |  |  |  |
| CC(C)(C)c1cc(C(=O)O)c(C(c2ccccc2)c2ccccc2C(=O)O)c(C(=O)O)c1 (configuration not stated) | > 100 µM | > 100 µM |  | > 100 µM | > 100 µM | 37.7 µM |  | > 100 µM | > 100 µM |  |  |  |  |  |  |  |  |  |  |  |
